Results on 2 compounds are retold here after paper PMC9283751 (Clinical and Translational Science, 2022).

Series [1] is classed as in vivo, human.
Series [2] is classed as in vivo, human. The source holds these as a separate data set.
The conditions of series [3]: with diltiazem; cited from earlier work.
For series [4] the following is noted: cited from earlier work.
For series [5] the following is noted: cited from earlier work. The source holds these as a separate data set.
Series [6] is described as follows: Calcineurin inhibitor trough levels in transplant recipients. The class given is in vivo, human. The following applies: mean [SD].
For series [7] the following is noted: reference group of healthy subjects, abbreviated dosing schedule; cited from earlier work.
The mark [8] stands for this setting: transplant recipients on tacrolimus, reference healthy subjects on apixaban + tacrolimus.
Setting [9] is: transplant recipients on cyclosporine compared to healthy subjects on apixaban alone.
Where [10] appears, read: transplant recipients on cyclosporine, reference healthy subjects on apixaban + cyclosporine.

The structures appear in SMILES notation. Read-outs that look alike come from different tables or passages of the source. Bounds are passed on as bounds.

Take `COc1ccc(-n2nc(C(N)=O)c3c2C(=O)N(c2ccc(N4CCCCC4=O)cc2)CC3)cc1` [apixaban]: in series [1] (SOTRs on calcineurin inhibitors compared to healthy subjects on apixaban alone), the “increase in plasma concentrations and total body exposures” value was in the range of 2 to 3 fold. The AUC(0-inf) stood at 5210 ng·h/mL in series [1] (human, plasma, oral, 10 mg); 4310 ng·h/mL in series [1] (human, plasma, po, 10 mg); 5390 ng·h/mL in series [2] (human, plasma, po, 10 mg). In addition, the Cmax in series [1] (human, plasma, oral, 10 mg) worked out at 327 ng/mL; in series [1] (human, plasma, po, 10 mg) it was 353 ng/mL. Moreover, the time of peak concentration (Tmax) in series [1] (human, plasma, oral, 10 mg) was determined as 1.4 h; in series [1] (tacrolimus transplant cohort, comparison group to patients that weighed <60 kg), 2.6 h. The AUC(0-t) in series [1] (human, plasma, po, 10 mg) was 4240 ng·h/mL; in series [2] (human, plasma, po, 10 mg) it was 4990 ng·h/mL. In addition, in series [1] (one participant (kidney 1) on tacrolimus), the peak level was greater than 500 ng/mL. The “mean AUCs higher than the healthy participants” value in series [1] (tacrolimus group, patients with optimal renal function) is reported as 1.8 fold. The “mean Cmax” value in series [1] (tacrolimus transplant cohort, patients that weighed <60 kg) came to 483 ng/mL. In addition, the “apixaban CL/F” value in series [1] (tacrolimus transplant cohort, patients with creatinine levels of greater than 133 μmol/L) is given as 1.9 L/h. Also, the “GMR for apixaban AUC0-inf” value in series [1] (transplant recipients on tacrolimus compared to healthy subjects on apixaban alone) turned out to be 224%; in series [1] (setting [8]), 285%; in series [2] (setting [9]), 280%; in series [2] (setting [10]), 229%. In addition, in series [1] (setting [8]), the “GMR for apixaban AUC0-tlast” value stood at 309%. The results for the “GMR for apixaban Cmax” value in series [2] (setting [9]) and in series [2] (setting [10]) were 256% and 179%, respectively. Besides, the “increase in apixaban AUC” value in series [3] is 1.4 fold. The “increase in apixaban Cmax” value in series [3] was 1.3 fold. The “apixaban dose removed by the kidneys” value in series [4] is recorded as 27%. In series [5], the solubility classification result is recorded as “high solubility”.

For the compound `C=CC[C@@H]1/C=C(\C)C[C@H](C)C[C@H](OC)[C@H]2O[C@@](O)(C(=O)C(=O)N3CCCC[C@H]3C(=O)O[C@H](/C(C)=C/[C@@H]3CC[C@@H](O)[C@H](OC)C3)[C@H](C)[C@@H](O)CC1=O)[C@H](C)C[C@@H]2OC` [tacrolimus], the figures for the mean trough level in series [6] (after apixaban administration) and in series [6] (before apixaban administration (steady-state)) were 8.0 [2.7] ng/ml and 7.4 (1.5) ng/ml, respectively. Moreover, the trough level in series [7] is listed as 3.8 (2.3) ng/ml.

A word on the AUC(0-inf): it is the area under the concentration-time curve extrapolated to infinity. A lower AUC(0-inf) goes with less exposure. What is called Cmax is the maximum level reached in the sampled fluid or tissue. A word on the Tmax: it is the time at which the peak concentration occurs. Usually AUC(0-t) stands for the area under the concentration-time curve up to a stated or last time point. A low value points to low exposure.
